Measurements reported in patent US9611301B2, “GB virus C (hepatitis G virus) E2 glycoprotein as an immunomodulatory agent” (priority 2012, dated 2017).
Where no end group is shown, it is not given here.

Key:
Lck = target: T1, Lck (Homo sapiens, UniProt P06239); test: Lck mediated phosphorylation of TAT-peptides (Lck kinase enzyme system); format: biochemical; details: in vitro
T1 construct: purchased Promega
Experimental: CD45 activity was measured using CD45 tyrosine phosphatase assay kit (Enzo Life Sciences) following the manufacturer's instructions. Purified recombinant GBV-C E2 protein expressed in CHO cells was described previouslyl^2. Enzymatic activity was evaluated with or without GBV-C E2 protein (10 μg) or human IgG control (10 μg; Sigma) at room temperature. Following 1 hour incubation, the reaction was terminated and absorbance determined by a Microplate reader (Model 680, Bio-Rad) at OD620nm. Phosphorylation of GBV-C E2 protein by Lck was measured by incubating recombinant E2 protein (40 μg) with or without human Lck ([…]; R&D Systems) as recommended by the manufacturer. Samples were subjected to immunoblot analysis as described above. Phosphorylation was determined by immunoblot analysis with phosphotyrosine antibodies (Invitrogen) and GBV-C E2 protein was identified using an anti-E2 monoclonal antibody. Lck mediated phosphorylation of GBV-C E2 derived TAT-peptides were performed using Lck kinase enzyme system (Promega) as recommended by the manufacturer.

Healthy donors PBMCs = test: IL-2 production by PBMCs incubated with synthetic TAT peptides, anti-CD3/CD28 stimulation; format: cell-based, human; details: 20 μg peptide over night, anti-CD3/CD28 500 ng/ml, 24 hrs
Source text: pLAT (Y191) was quantified using PathScan ELISA kit (Cell Signaling Technology) and IL-2 cytokine released into cell culture supernatant was quantified using human IL-2 quantikine ELISA kit (R&D Systems) according to manufacturer's instructions.
(§1) FITC labelled synthetic peptides with an N-terminal HIV TAT protein transduction domain (TAT) alone (GGGGGRKKRRQRRR; SEQ ID NO: 13), or with the GBV-C E2 aa 86-101 ([…]; SEQ ID NO: 14; Y87), or the Y87H mutation ([…]; SEQ ID NO: 15) were obtained from Ana Spec, Inc. Peptides with the TAT domain and GBV-C E2 aa 276-292 (GGAGLTGGRYEPLVRRC; SEQ ID NO: 16), or the same amino acids in a scrambled order (GCRCARGVLLTPGEGYF; SEQ ID NO: 17) as previously described^28. Peptides were dissolved in RPMI with 10% DMSO. The TAT domain enhances cellular uptake of the peptide. Healthy donors PBMCs (1×10^6 cells/ml) were incubated with 20 μg peptide at 37° C. over night before stimulation with 500 ng/ml anti-CD3/CD28. IL-2 release and cellular receptor expression was analyzed 24 hrs later.

[1] = system: primary human CD4+ and CD8+ T cells; test: CD69 and CD25 surface expression on CD4+ and CD8+ T cells incubated with synthetic TAT peptides; format: cell-based; details: compared to mutant or control peptide
Experimental: Cellular receptor expression was measured using the following antibodies per manufacturer's recommendation: CD69 (PE), CD25 (APC), CD45 (PE) (BD Biosciences). Cells were incubated on ice for 1 hour, washed 3 times with PBS and fixed in 2% paraformaldehyde (Polysciences). Data was acquired on BD LSR II flow cytometer using single stained CompBeads (BD Biosciences) for compensation. At least 10,000 total events were collected in each experiment and the FlowJo program (Tree Star Inc.) was used for data analysis. All flow cytometry experiments were repeated at least three times with consistent results.
as §1

T1 sequence (P06239 whole entry, species assumed): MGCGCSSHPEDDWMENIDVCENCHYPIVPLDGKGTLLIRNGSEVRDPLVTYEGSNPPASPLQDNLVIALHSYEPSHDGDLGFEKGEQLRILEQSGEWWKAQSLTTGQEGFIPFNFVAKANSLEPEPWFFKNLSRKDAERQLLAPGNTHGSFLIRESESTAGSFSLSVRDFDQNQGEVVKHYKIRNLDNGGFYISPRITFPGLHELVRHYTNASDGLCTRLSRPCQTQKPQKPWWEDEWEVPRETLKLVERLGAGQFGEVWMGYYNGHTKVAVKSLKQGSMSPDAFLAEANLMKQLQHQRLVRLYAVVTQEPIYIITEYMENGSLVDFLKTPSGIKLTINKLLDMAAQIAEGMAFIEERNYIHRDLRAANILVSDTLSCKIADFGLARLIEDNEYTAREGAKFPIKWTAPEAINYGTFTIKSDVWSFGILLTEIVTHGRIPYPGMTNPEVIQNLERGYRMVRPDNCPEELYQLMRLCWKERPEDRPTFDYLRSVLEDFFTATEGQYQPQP

Row | Sequence | Lck mediated phosphorylation of peptide (Lck substrate) (Lck) | IL-2 production (Healthy donors PBMCs) | surface expression of CD25 [1] | surface expression of CD69 [1]
1 | GGAGLTGGRYEPLVRRC [TAT-276-292] | served as a Lck substrate in vitro | – | – | –
2 | GGGGGRKKRRQRRR (also: FITC label, site not given here) [TAT control, HIV TAT protein transduction domain alone; negative control, reference compound] | – | not | – | –
3 | GGGGGRKKRRQRRRVHGSVSVTCVWGS (also: FITC label, site not given here) [TAT-Y87H, TAT peptide with the Y87H mutation] | – | not | – | –
4 | GGGGGRKKRRQRRRVYGSVSVTCVWGS (also: FITC label, site not given here) [TAT-Y87, synthetic peptide, N-terminal HIV TAT protein transduction domain with GBV-C E2 aa 86-101] | phosphorylated by Lck in a dose-dependent manner | inhibited | significantly reduced | significantly reduced
